Reference: the OligoGym collection
Values joined by “and” are separate entries in the source; they are usually repeats but may differ in a detail not shown here. Identical values can stand only once. HELM strings list units from the 5' end as sugar, base in round brackets, then linkage (d deoxyribose, r ribose, m 2'-O-methyl, p phosphodiester). Methylation of C is not given here. [moe] = 2'-O-(2-methoxyethyl) (MOE); [cEt] = constrained ethyl (cEt); [sp] = phosphorothioate linkage

Target: HBV
Conditions: ASO

Row | Substance | target mRNA inhibition (HepG2, 0.07 µM) | other results
1 | RNA1{[moe](C)[sp].[moe](G)[sp].[moe](T)[sp].[moe](G)[sp].[moe](C)[sp].d(A)[sp].d(G)[sp].d(A)[sp].d(G)[sp].d(G)[sp].d(T)[sp].d(G)[sp].d(A)[sp].d(A)[sp].[moe](G)[sp].[moe](C)}$$$$V2.0 | 59% and 51% | 
2 | RNA1{[moe](A)[sp].[moe](A)[sp].[moe](C)[sp].[moe](T)[sp].d(G)[sp].d(G)[sp].d(A)[sp].d(G)[sp].d(C)[sp].d(C)[sp].d(A)[sp].d(C)[sp].d(C)[sp].[moe](A)[sp].[moe](G)[sp].[moe](C)[sp].[moe](A)}$$$$V2.0 | 64% and 58% | 
3 | RNA1{[moe](G)[sp].[cEt](A)[sp].[cEt](G)[sp].d(A)[sp].d(A)[sp].d(G)[sp].d(T)[sp].d(C)[sp].d(C)[sp].d(A)[sp].d(C)[sp].d(C)[sp].d(A)[sp].[cEt](C)[sp].[cEt](G)[sp].[moe](A)}$$$$V2.0 | 62% and 54% | 
4 | RNA1{[moe](G)[sp].[moe](A)[sp].[moe](A)[sp].[moe](C)[sp].[moe](C)[sp].d(A)[sp].d(C)[sp].d(T)[sp].d(G)[sp].d(A)[sp].d(A)[sp].d(C)[sp].d(A)[sp].d(A)[sp].[moe](A)[sp].[moe](T)[sp].[moe](G)}$$$$V2.0 | 48% and 27% | 
5 | RNA1{[moe](C)[sp].[moe](G)[sp].[moe](C)[sp].d(A)[sp].d(G)[sp].d(T)[sp].d(A)[sp].d(T)[sp].d(G)[sp].d(G)[sp].d(A)[sp].d(T)[sp].d(C)[sp].[cEt](G)[sp].[cEt](G)[sp].[cEt](C)}$$$$V2.0 | 85% and 84% | target mRNA inhibition (HepG2, 0.0092593 µM): 0%; target mRNA inhibition (HepG2, 0.0277778 µM): 50%; target mRNA inhibition (HepG2, 0.0833333 µM): 74%; target mRNA inhibition (HepG2, 0.25 µM): 81%
6 | RNA1{[moe](G)[sp].[cEt](A)[sp].d(G)[sp].d(A)[sp].d(A)[sp].d(G)[sp].d(T)[sp].d(C)[sp].d(C)[sp].d(A)[sp].d(C)[sp].d(C)[sp].[cEt](A)[sp].[moe](C)[sp].[cEt](G)[sp].[moe](A)}$$$$V2.0 | 34% and 43% | 
7 | RNA1{[moe](T)[sp].[moe](G)[sp].[moe](C)[sp].[moe](A)[sp].[moe](G)[sp].[moe](A)[sp].d(G)[sp].d(G)[sp].d(T)[sp].d(G)[sp].d(A)[sp].d(A)[sp].d(G)[sp].d(C)[sp].d(G)[sp].[moe](A)[sp].[moe](A)}$$$$V2.0 | 74% and 63% | 
8 | RNA1{[moe](C)[sp].[moe](T)[sp].[moe](G)[sp].d(G)[sp].d(A)[sp].d(G)[sp].d(C)[sp].d(C)[sp].d(A)[sp].d(C)[sp].d(C)[sp].d(A)[sp].[moe](G)[sp].[moe](C)[sp].[moe](A)[sp].[moe](G)}$$$$V2.0 | 42% and 38% | 
9 | RNA1{[moe](G)[sp].[moe](T)[sp].[moe](G)[sp].d(A)[sp].d(A)[sp].d(G)[sp].d(C)[sp].d(G)[sp].d(A)[sp].d(A)[sp].d(G)[sp].d(T)[sp].[moe](G)[sp].[moe](C)[sp].[moe](A)[sp].[moe](C)[sp].[moe](A)}$$$$V2.0 | 71% and 63% | 
10 | RNA1{[moe](T)[sp].[moe](T)[sp].[moe](C)[sp].[moe](C)[sp].[moe](G)[sp].d(C)[sp].d(A)[sp].d(G)[sp].d(T)[sp].d(A)[sp].d(T)[sp].d(G)[sp].d(G)[sp].d(A)[sp].[moe](T)[sp].[moe](C)[sp].[moe](G)}$$$$V2.0 | 65% and 59% | 
11 | RNA1{[moe](G)[sp].[moe](A)[sp].[moe](A)[sp].d(C)[sp].d(T)[sp].d(G)[sp].d(G)[sp].d(A)[sp].d(G)[sp].d(C)[sp].d(C)[sp].d(A)[sp].[moe](C)[sp].[moe](C)[sp].[moe](A)[sp].[moe](G)[sp].[moe](C)}$$$$V2.0 | 65% and 51% | 
12 | RNA1{[moe](G)[sp].[cEt](C)[sp].[cEt](A)[sp].d(T)[sp].d(A)[sp].d(G)[sp].d(C)[sp].d(A)[sp].d(G)[sp].d(C)[sp].d(A)[sp].d(G)[sp].d(G)[sp].[cEt](A)[sp].[cEt](T)[sp].[moe](G)}$$$$V2.0 | 67% and 71% | 
13 | RNA1{[moe](T)[sp].[moe](G)[sp].d(C)[sp].d(A)[sp].d(G)[sp].d(A)[sp].d(G)[sp].d(G)[sp].d(T)[sp].d(G)[sp].d(A)[sp].[moe](A)[sp].[moe](G)[sp].[moe](C)[sp].[moe](G)[sp].[moe](A)}$$$$V2.0 | 46% and 36% | 
14 | RNA1{[moe](G)[sp].[moe](T)[sp].[moe](T)[sp].d(C)[sp].d(C)[sp].d(G)[sp].d(C)[sp].d(A)[sp].d(G)[sp].d(T)[sp].d(A)[sp].d(T)[sp].[moe](G)[sp].[moe](G)[sp].[moe](A)[sp].[moe](T)}$$$$V2.0 | 51% and 65% | 
15 | RNA1{[moe](A)[sp].[moe](G)[sp].[moe](G)[sp].[moe](T)[sp].d(G)[sp].d(A)[sp].d(A)[sp].d(G)[sp].d(C)[sp].d(G)[sp].d(A)[sp].d(A)[sp].d(G)[sp].[moe](T)[sp].[moe](G)[sp].[moe](C)}$$$$V2.0 | 3% and 19% | 
16 | RNA1{[moe](G)[sp].[cEt](A)[sp].d(A)[sp].d(C)[sp].d(A)[sp].d(A)[sp].d(A)[sp].d(T)[sp].d(G)[sp].d(G)[sp].d(C)[sp].d(A)[sp].[cEt](C)[sp].[moe](T)[sp].[cEt](A)[sp].[moe](G)}$$$$V2.0 | 75% and 79% | 
17 | RNA1{[moe](G)[sp].[moe](C)[sp].[moe](A)[sp].[moe](G)[sp].[moe](A)[sp].d(G)[sp].d(G)[sp].d(T)[sp].d(G)[sp].d(A)[sp].d(A)[sp].d(G)[sp].d(C)[sp].d(G)[sp].[moe](A)[sp].[moe](A)}$$$$V2.0 | 63% and 58% | 
18 | RNA1{[moe](A)[sp].[cEt](C)[sp].[cEt](C)[sp].d(A)[sp].d(C)[sp].d(A)[sp].d(T)[sp].d(C)[sp].d(A)[sp].d(T)[sp].d(C)[sp].d(C)[sp].d(A)[sp].[cEt](T)[sp].[cEt](A)[sp].[moe](T)}$$$$V2.0 | 35% and 54% | 
19 | RNA1{[moe](C)[sp].[cEt](A)[sp].d(A)[sp].d(T)[sp].d(T)[sp].d(T)[sp].d(A)[sp].d(T)[sp].d(G)[sp].d(C)[sp].d(C)[sp].d(T)[sp].[cEt](A)[sp].[moe](C)[sp].[cEt](A)[sp].[moe](G)}$$$$V2.0 | 35% and 34% | 
20 | RNA1{[moe](G)[sp].[moe](A)[sp].d(G)[sp].d(T)[sp].d(T)[sp].d(C)[sp].d(C)[sp].d(G)[sp].d(C)[sp].d(A)[sp].d(G)[sp].[moe](T)[sp].[moe](A)[sp].[moe](T)[sp].[moe](G)[sp].[moe](G)[sp].[moe](A)}$$$$V2.0 | 78% and 66% | 
21 | RNA1{[moe](T)[sp].[moe](T)[sp].d(C)[sp].d(C)[sp].d(G)[sp].d(C)[sp].d(A)[sp].d(G)[sp].d(T)[sp].d(A)[sp].d(T)[sp].[moe](G)[sp].[moe](G)[sp].[moe](A)[sp].[moe](T)[sp].[moe](C)[sp].[moe](G)}$$$$V2.0 | 67% and 72% | 
22 | RNA1{[moe](C)[sp].[moe](G)[sp].[moe](C)[sp].d(A)[sp].d(G)[sp].d(T)[sp].d(A)[sp].d(T)[sp].d(G)[sp].d(G)[sp].d(A)[sp].d(T)[sp].[moe](C)[sp].[moe](G)[sp].[moe](G)[sp].[moe](C)}$$$$V2.0 | 84% and 68% | 
23 | RNA1{[moe](A)[sp].[cEt](C)[sp].[cEt](T)[sp].d(G)[sp].d(G)[sp].d(A)[sp].d(G)[sp].d(C)[sp].d(C)[sp].d(A)[sp].d(C)[sp].d(C)[sp].d(A)[sp].[cEt](G)[sp].[cEt](C)[sp].[moe](A)}$$$$V2.0 | 67% and 75% | 
